Experimental findings from patent US20160304861A1, “SPATIAL MULTIPLEXING FOR MULTISIGNAL CELLULAR IMAGING” (Massachusetts Institute of Technology, priority 2015, published 2016) are described below.

The assay has as its system Gcamp6f sensor cluster in HEK293 cells. Put plainly: Gcamp6f sensor cluster response to ionomycin treatment in HEK293 cells. The assay is classed as cell-based. As to conditions: 20 mM ionomycin in DMSO added at around 2 minutes, FIG. 1C. The protocol:
HEK cells were transfected with the TransIT®-293 transfection reagent (Minis). Cells were plated in a 24-well plate, transfected with 50 ng plasmids per well after 18-24 hours plating, and imaged 24 hours after transfection. Mouse neurons were transfected with the calcium phosphate transfection kit (Invitrogen). Neurons were plated in a 24-well plate, transfected 96 hours after plating with 1500 ng plasmids per well and were imaged at least 48 hours after transfection. For co-transfection in neurons, two plasmids were mixed as 1:1 ratio, maintaining a total of 1500 ng plasmids per well. For HEK experiments, NucBlue Life cell stain and ReadyProbes reagent (Life Technologies) were added to stain the nucleus. Mfn1-null MEF cells (ATCC® CRL-2992™) were plated in a 24-well glass-bottom plate with 50-70% cell confluency. Plasmids were then transfected with a mixture of 200 ng plasmid and […] Trans-IT X2 (Mirus) per well. Transfected cells were incubated at 37° C. for 48-72 hours to establish the expression.
An inverted epi-fluorescence Nikon Ti Eclipse equipped with SPECTRA X light engine (LumenCor), Zyla5.5 camera (Andor), 100× 1.45 NA oil objective lens (Nikon), 20× 0.75 NA objective lens (Nikon), and standard CFP-YFP FRET filter sets (Semrock) were used to image the fluorescent patterns. FRET imaging typically lasts for 10 min. […]

Structures are written as SMILES.

Take `C[C@H](CCC(=O)O)C[C@H](C)C[C@H](C)C(=O)/C=C(\O)[C@H](C)C[C@H](C)C/C=C/[C@@H](C)[C@@H](O)[C@@H](C)[C@@H](O)C[C@@H]1CC[C@@](C)([C@H]2CC[C@@](C)([C@@H](C)O)O2)O1` [ionomycin]: the “fluorescence by the Gcamp6f sensor cluster” value was “incrase in fluorescence”.
